The source of these data is US20250282834A1, “PEPTIDE INHIBITORS FOR CHROMODOMAIN HELICASE DNA BINDING PROTEIN 4 (CHD4)” (THE REGENTS OF THE UNIVERSITY OF CALIFORNIA, priority 2022, published 2025).

Non-standard residues stand in square brackets, D forms with d. Residues, ends and D or L forms follow the SMILES beside them. No end group written: not given here. *: point of attachment. Orn = NCCC[C@H](N)C(=O)O; Cbz = O=C(OCc1ccccc1)*; βAla = NCCC(=O)O; CH2F = FC*

Assay [1] deals with primary effusion lymphoma (PEL) cells (BC3, BCBL-1). The format is cell-based. How it is done:
FIG. 4 VGN73 inhibits cell growth on various cancer cell types and induces apoptosis and autophagy in BC3 cells. FIG. 4a. MT assays were performed with the indicated cell lines treated with various VGN73 and mutant peptide concentrations for 24 hours. The OD of mock-treated samples were set as 100%, and OD from detergent-treated cells were set as 0%. Mean percentage viability±SD was calculated for each treatment (n=3 samples/treatment). FIG. 4b. VGN73 induces apoptosis. BC3 cells were incubated with of VGN73 (18 μM) for 0, 1, 4, and 24 hours, followed by measurements of percentage apoptosis induction (Annexin V staining) by flow cytometry. Median percentage apoptosis was calculated for each treatment time (n=3 samples/treatment time) (a). […] Cleaved caspase 3 were calculated by normalizing to untreated sample, and untreated sample set as 100% (b). […] Median percentage apoptosis was calculated for each treatment time (n=3 samples/treatment) (a). […] ratios were calculated by normalizing to untreated sample, and untreated sample set as 100% (b). […] Cell viability were determined by MTT assay (n=5 samples/treatment). *; p<0.05. **; p<0.01 versus the control group, #; p<0.05 versus the Z-VAD-FMK group.
The cytotoxic activity of VGN73 and mutant peptide were measured using the MTT assay. […] The optical densities (ODs) were measured at 570 nm with a Benchmark Plus Microplate Spectrophotometer (Bio-Rad). […]

The target of another assay is T1, CHD4 (Homo sapiens, UniProt Q14839).
T1 construct: endogenous in cells; host or cells: BC3, BCBL-1
The assay is described as follows: CHD4 and LANA protein expression by IFA and western blotting in PEL cells. The format is cell-based. Conditions: for recovery of full-length CHD4 by inhibitor pretreatment before VGN73: BC3 cells, Z-VAD-FMK 50 μM or bortezomib 25 nM 1 hour, then VGN73 18 μM 8 hours. How it is done:
FIG. 3 Effect of VGN73 on CHD4 and LANA protein in tissue culture. FIG. 3. Amount of CHD4 and LANA protein expression was evaluated by IFA. BC3 cells were treated with VGN73 (18 μM) or mutant peptide (18 μM) for 24 hours. Then the cells were stained with the indicated antibodies. The scale is indicated in the panel. Cell volume. CHD4 and LANA signal intensity were compared. **; p<0.01, ***; p<0.001 versus the VGN73 group. FIG. 3b. Amount of CHD4 and LANA protein expression in total cell lysates was evaluated by western blotting. BC3 and BCBL-1 cells were treated with VGN73 at a concentration of IC50 or starved condition for 24 hours. The respective protein band was confirmed by immunoblotting with anti-CHD4 and anti-LANA antibody. FIG. 3c. Evaluating of caspase and proteasome in CHD4 cleavage by VGN73. BC3 cells were pretreated with pan-caspase inhibitor. Z-VAD-FMK (50 μM) or proteasome inhibitor, bortezomib (25 nM) for 1 hour, followed by treated with VGN73 (18 μM) for 8 hours. The respective protein band was confirmed by immunoblotting with anti-CHD4 antibody.
BC3 cells and BCBL-1 cells were treated with VGN73 at the concentration of IC50 for 24 hours. These cells were also treated with VGN73 in media without FBS. To evaluate the effect of VGN73 on CHD4 and LANA proteins in tissue culture, IFA and western blotting were carried out, and these gene expressions were evaluated by RT-qPCR. Moreover, BC3 cells were pretreated with pan-caspase inhibitor, Z-VAD-FMK (50 μM) or proteasome inhibitor, bortezomib (25 nM) for 1 hour, followed by treated with VGN73 (18 μM) for 8 hours. BC3 cells were pretreated with lysosome inhibitor, chloroquine (7.5 μM) for 1 hour, followed by treated with VGN73 (18 μM) for 24 hours. […]
To evaluate subcellular peptide localization, IFA was carried out (FIG. 2d). […] The exposure settings and image acquisition protocols were fixed in each imaging study to enable quantitative analysis. Mean LANA and CHD4 fluorescence (measured in arbitrary units, or A.U.) per cell was subsequently calculated using onboard software and/or NIH Image (FIG. 3a(b)). […]
Background: In western blotting, separated proteins are transferred to a membrane and probed.

The target in the next assay is T2, full-length Flag-CHD4 (Homo sapiens, UniProt Q14839).
T2 construct: made in house; host or cells: Sf9 (recombinant baculovirus)
The assay is described as follows: Biolayer interferometry (BLI) binding kinetics of peptides to CHD4. Conditions: N-biotinylated peptides immobilized, sequentially diluted full-length Flag-CHD4. How it is done: We next examined peptide binding sites on the CHD4 domain and measured affinity to further confirm the interaction. Multiple CHD4 deletion proteins were expressed and purified from recombinant baculovirus-infected Sf9 cells with Flag-agarose beads (FIG. 7a). An equal molecular amount of recombinant proteins was coated on an ELISA plate and increasing concentrations of biotinylated peptides were incubated. […] Binding affinity to the fill-length CHD4 was also calculated with Bio-Layer Interferometry (BLI). […] The N-biotinylated VGN73 or control peptides were first immobilized on a streptavidin-coated chip, and sequentially diluted full-length Flag-CHD4 proteins were applied. The interaction was then detected with interferometry.
To evaluate of binding kinetics of VGN73 and mutant peptide to CHD4, assays were carried out by biolayer interferometry (BLI) on Octet-Red 384 (ForteBio, CA, USA) at 30° C. with shaking at 1,000 RPM. Streptavidin (SA) tips (Sartorius, Goettingen, Germany) were dipped in 200 μL of biotinylated peptide (VGN73, mutant or TAT) solution (1 μM in 1× kinetic buffer) for the loading step. […] Binding kinetics was evaluated using a 1:1 binding model by ForteBio Data Analysis 8.1 software to obtain the dissociation constant KD.
For orientation: In BLI a coated tip is dipped into the sample, and binding shifts an interference pattern.

T1 sequence (Q14839 whole entry): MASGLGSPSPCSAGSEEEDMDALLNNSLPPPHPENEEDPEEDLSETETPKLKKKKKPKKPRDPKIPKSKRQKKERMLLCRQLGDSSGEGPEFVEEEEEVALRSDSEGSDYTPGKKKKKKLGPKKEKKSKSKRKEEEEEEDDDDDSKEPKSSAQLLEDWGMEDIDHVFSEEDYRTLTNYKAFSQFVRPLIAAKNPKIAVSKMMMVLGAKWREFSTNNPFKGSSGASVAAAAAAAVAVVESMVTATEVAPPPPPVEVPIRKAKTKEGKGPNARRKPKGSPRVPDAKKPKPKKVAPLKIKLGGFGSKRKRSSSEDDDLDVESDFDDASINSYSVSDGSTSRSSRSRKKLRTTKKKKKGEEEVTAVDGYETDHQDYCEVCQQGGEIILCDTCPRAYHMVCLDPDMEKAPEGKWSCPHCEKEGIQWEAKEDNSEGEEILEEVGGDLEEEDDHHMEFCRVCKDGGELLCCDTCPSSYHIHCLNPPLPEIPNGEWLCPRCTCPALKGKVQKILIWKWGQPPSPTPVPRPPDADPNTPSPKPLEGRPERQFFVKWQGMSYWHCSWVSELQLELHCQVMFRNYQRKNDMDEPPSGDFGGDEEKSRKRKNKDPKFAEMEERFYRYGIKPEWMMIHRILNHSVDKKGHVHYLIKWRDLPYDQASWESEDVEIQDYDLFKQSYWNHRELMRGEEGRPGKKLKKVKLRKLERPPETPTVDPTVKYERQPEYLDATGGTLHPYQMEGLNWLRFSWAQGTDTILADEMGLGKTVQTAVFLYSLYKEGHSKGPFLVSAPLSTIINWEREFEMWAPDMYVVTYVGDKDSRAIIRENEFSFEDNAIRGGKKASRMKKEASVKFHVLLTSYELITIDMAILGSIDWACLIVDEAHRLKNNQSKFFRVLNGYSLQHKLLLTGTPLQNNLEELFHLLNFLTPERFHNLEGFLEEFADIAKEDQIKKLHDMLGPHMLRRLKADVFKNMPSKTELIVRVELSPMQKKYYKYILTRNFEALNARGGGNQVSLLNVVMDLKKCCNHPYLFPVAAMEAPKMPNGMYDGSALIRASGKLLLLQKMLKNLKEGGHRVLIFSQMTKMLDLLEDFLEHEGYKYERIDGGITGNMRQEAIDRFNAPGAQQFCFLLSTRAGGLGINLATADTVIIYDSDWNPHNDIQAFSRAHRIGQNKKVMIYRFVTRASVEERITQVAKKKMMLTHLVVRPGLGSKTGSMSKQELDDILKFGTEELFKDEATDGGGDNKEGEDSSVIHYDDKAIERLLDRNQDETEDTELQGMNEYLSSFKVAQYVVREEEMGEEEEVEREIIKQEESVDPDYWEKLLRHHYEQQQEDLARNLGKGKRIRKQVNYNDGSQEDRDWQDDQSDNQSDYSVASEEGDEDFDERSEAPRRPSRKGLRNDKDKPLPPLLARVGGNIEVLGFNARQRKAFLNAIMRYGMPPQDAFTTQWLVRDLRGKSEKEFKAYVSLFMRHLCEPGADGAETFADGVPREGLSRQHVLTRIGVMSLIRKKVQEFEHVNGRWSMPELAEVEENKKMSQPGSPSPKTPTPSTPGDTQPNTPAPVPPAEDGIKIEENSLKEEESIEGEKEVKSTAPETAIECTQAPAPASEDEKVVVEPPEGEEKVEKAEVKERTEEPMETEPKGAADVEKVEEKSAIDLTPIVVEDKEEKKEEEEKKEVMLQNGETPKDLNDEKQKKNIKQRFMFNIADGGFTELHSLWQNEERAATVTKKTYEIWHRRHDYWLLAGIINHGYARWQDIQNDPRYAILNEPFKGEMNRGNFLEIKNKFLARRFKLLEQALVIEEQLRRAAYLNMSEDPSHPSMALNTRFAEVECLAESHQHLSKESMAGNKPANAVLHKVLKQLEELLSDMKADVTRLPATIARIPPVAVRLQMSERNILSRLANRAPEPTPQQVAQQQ
T2 sequence (Q14839 whole entry): as above

With `COC(=O)C[C@H](NC(=O)[C@H](C)NC(=O)[C@@H](NC(=O)OCc1ccccc1)C(C)C)C(=O)CF` [Z-VAD-FMK] (Cbz-Val-Ala-Asp(OMe)-CH2F), in assay [1] (BC3 and BCBL-1, Z-VAD-FMK 40 μM 1 hr, VGN73 18 or 13 μM), the “rescue from VGN73 cell death by Z-VAD-FMK pretreatment (MTT)” value is “partially rescued BC3 and BCBL-1 from cell death”. Also, the “recovery of full-length CHD4 by inhibitor pretreatment before VGN73” value on CHD4 is reported as “recovered full-length CHD4”.
Turning to `CC(C)C[C@H](NC(=O)[C@H](Cc1ccccc1)NC(=O)c1cnccn1)B(O)O` [proteasome inhibitor, bortezomib], the “recovery of full-length CHD4 by inhibitor pretreatment before VGN73” value at CHD4 is “not a proteasome inhibitor”.
As to “{d-Arg}KKRR{ORN]RRR{β-Ala} (RKKRRXRRRA; d-Arg, ornithine, beta-Ala non-natural residues; Description of sequence: modified TAT amino acid sequence; SITE 1 d-arginine; MOD_RES 6 ORN; MOD_RES 10 beta-alanine)”, in the assay with full-length Flag-CHD4, the “binding to CHD4 by BLI” value is on record as “not mutant or TAT alone binds to CHD4”.
On to “{d-Arg}KKRR{ORN}RRR{β-Ala}AKHAVISAGNDPYGLKK ([dR]KKRR[Orn]RRR[βAla]AKHAVISAGNDPYGLKK) [mutant peptide, mutant peptide with three amino acid changes at conserved amino acids]”, for which the “cancer cell death in vitro tissue culture” value in assay [1] is on record as “not mutant peptide”. Moreover, in the assay with full-length Flag-CHD4, the “binding to CHD4 by BLI” value is on record as “mutations eliminated the interaction”. Also, the “CHD4 cleavage (western blotting, total cell lysates)” value with CHD4 (BC3 and BCBL-1 cells, IC50 concentration, 24 hours) was “did not have such effects”.
